# According to patent US20180333418A1, “USE OF PAN FGFR INHIBITORS AND METHOD OF IDENTIFYING PATIENTS WITH CANCER ELIGIBLE FOR TREATMENT WITH A PAN FGFR INHIBITOR” (BAYER PHARMA AKTIENGESELLSCHAFT, priority 2014, published 2018):
# Key:
# [1] = test system: H1703 lung tumor model; assay: H1703 xenograft in vivo efficacy; parameters: species or system nu/nu mice; conditions: tumor weight reduction
# Description: (§1) For all other tumors as listed in table 2 & 3 the experiments were carried out in an analogous way as described above.
# [2] = test system: MFE280 endometrial tumor model; assay: MFE280 xenograft in vivo efficacy; parameters: species or system nu/nu mice; conditions: tumor weight reduction
# Description: as §1
# [3] = test system: FGFR mRNA-positive tumors of cancer patients; assay: Clinical trial NCT01976741, RECIST CT scan evaluation; type: in vivo; parameters: key to RECIST response after C2 / RECIST response after C5: Stable Disease (SD) according to RECIST; progressive disease (PD); conditions: 800 mg BID; for % tumor change after C2 / RECIST response after C2: C2 = 6 weeks; for % tumor change after C5 / RECIST response after C5: C5 = 15 weeks
# [4] = test system: HNXF908 head&neck tumor model; assay: HNXF908 xenograft in vivo efficacy; parameters: species or system nu/nu mice; conditions: tumor weight reduction
# Description: as §1
# [5] = test system: H1581 lung tumor model; assay: H1581 xenograft in vivo efficacy; parameters: species or system nu/nu mice; conditions: tumor weight reduction
# Description: as §1
# [6] = test system: ES204 esophagus squamous cell carcinoma; assay: ES204 patient-derived xenograft study; type: in vivo, nu/nu mice
# Description: Female, 6-8 weeks old immunocompromised nu/nu mice (18-24 g) from Vital River (China) were used for the patient-derived ES204 esophagus squamous cell carcinoma study.
# Experiment was initiated after a minimal acclimatization period of 6 days. Mice were kept in a 12 hours light/dark cycle, food and water was available ad libitum and housing temperature was 20-26° C. All the procedures related to animal handling, care, and the treatment in this study were performed according to the guidelines approved by the Institutional Animal Care and Use Committee (IACUC) of CrownBio following the guidance of the Association for Assessment and Accreditation of Laboratory Animal Care (AAALAC). […]
# Tumor fragments from stock mice inoculated with selected primary human esophagus cancer tissues (ES204) were harvested and used for inoculation onto female nu/nu nude mice. […] Tumors were sampled when mice in the control group reached sacrificing criteria, and final tumor weights were measured on day 23 post treatment start.
# Tumor size was measured twice weekly in two dimensions using a caliper, and the volume was expressed in mm^3 using the formula: V=0.5a×b^2 where a and b are the long and short diameters of the tumor, respectively. […]
# Descriptive statistics for all groups were performed on final tumor areas and tumor weights at day of the necropsy. Statistical analysis was assessed using the SigmaStat software. […]
# [7] = test system: A2780 ovarian tumor model; assay: A2780 xenograft in vivo efficacy; parameters: species or system nu/nu mice; conditions: tumor weight reduction
# Description: as §1
# [8] = test system: OMP2 myeloma tumor model; assay: OMP2 xenograft in vivo efficacy; parameters: species or system nu/nu mice; conditions: tumor weight reduction
# Description: as §1
# [9] = test system: DMS114 lung tumor model; assay: DMS114 xenograft in vivo efficacy; parameters: species or system nu/nu mice; conditions: tumor weight reduction
# Description: as §1
compound,measurement,setting,value
COCc1c(-c2cc3cc(C)cc(OC)c3s2)c2c(N)ncnn2c1CN1CCNC(=O)C1 [compound of formula (I)],in vivo efficacy,[1],no (All models in which the tumor weight was reduced upon treatment with compounds of formula (I) by at least 50% were considered to be efficacious in vivo.)
same,in vivo efficacy,[2],yes (All models in which the tumor weight was reduced upon treatment with compounds of formula (I) by at least 50% were considered to be efficacious in vivo.)
same,% tumor change after C2,"[3]; Pat 100010010, sqNSCLC",0%
same,RECIST response after C2,"[3]; Pat 100010010, sqNSCLC",SD
same,% tumor change after C5,"[3]; Pat 100010010, sqNSCLC",+8%
same,RECIST response after C5,"[3]; Pat 100010010, sqNSCLC",SD
same,% tumor change after C2,"[3]; Pat 100010018, Mesothelioma",+14%
same,RECIST response after C2,"[3]; Pat 100010018, Mesothelioma",SD
same,% tumor change after C2,"[3]; Pat 100020012, sqNSCLC",−10%
same,RECIST response after C2,"[3]; Pat 100020012, sqNSCLC",SD
same,% tumor change after C2,"[3]; Pat 560020029, sqNSCLC",+4%
same,RECIST response after C2,"[3]; Pat 560020029, sqNSCLC",SD
same,% tumor change after C5,"[3]; Pat 560020029, sqNSCLC",+5%
same,RECIST response after C5,"[3]; Pat 560020029, sqNSCLC",SD
same,% tumor change after C2,"[3]; Pat 560020064, SCLC",−2%
same,RECIST response after C2,"[3]; Pat 560020064, SCLC",SD
same,% tumor change after C2,"[3]; Pat 580010012, sqNSCLC",−10%
same,RECIST response after C2,"[3]; Pat 580010012, sqNSCLC",SD
same,% tumor change after C5,"[3]; Pat 580010012, sqNSCLC",−10%
same,RECIST response after C5,"[3]; Pat 580010012, sqNSCLC",SD
same,% tumor change after C2,"[3]; Pat 580010016, sqNSCLC",−5%
same,RECIST response after C2,"[3]; Pat 580010016, sqNSCLC",SD
same,% tumor change after C5,"[3]; Pat 580010016, sqNSCLC",−6%
same,RECIST response after C5,"[3]; Pat 580010016, sqNSCLC",SD
same,% tumor change after C2,"[3]; Pat 580010022, Bladder",−3%
same,RECIST response after C2,"[3]; Pat 580010022, Bladder",SD
same,% tumor change after C5,"[3]; Pat 580010022, Bladder",−2%
same,RECIST response after C5,"[3]; Pat 580010022, Bladder",SD
same,% tumor change after C2,"[3]; Pat 580010038, Unknown primary",+26%
same,RECIST response after C2,"[3]; Pat 580010038, Unknown primary",PD
same,in vivo efficacy,[4],yes (All models in which the tumor weight was reduced upon treatment with compounds of formula (I) by at least 50% were considered to be efficacious in vivo.)
same,in vivo efficacy,[5],yes (All models in which the tumor weight was reduced upon treatment with compounds of formula (I) by at least 50% were considered to be efficacious in vivo.)
same,T/C at day 23 post treatment start,"[6]; ES204, 50 mg/kg 2QD po, treated mean/vehicle mean tumor volume",0.1
same,in vivo efficacy,"[6]; ES204 esophageal model, tumor weight reduction",yes (All models in which the tumor weight was reduced upon treatment with compounds of formula (I) by at least 50% were considered to be efficacious in vivo.)
same,in vivo efficacy,[7],yes (All models in which the tumor weight was reduced upon treatment with compounds of formula (I) by at least 50% were considered to be efficacious in vivo.)
same,in vivo efficacy,[8],no (All models in which the tumor weight was reduced upon treatment with compounds of formula (I) by at least 50% were considered to be efficacious in vivo.)
same,in vivo efficacy,[9],yes (All models in which the tumor weight was reduced upon treatment with compounds of formula (I) by at least 50% were considered to be efficacious in vivo.)
